Publication PMC11576293, “New series of 4,6-diaryl pyrimidines: facile synthesis and antiproliferative activity as dual EGFR/VEGFR-2 inhibitors” (Frontiers in Chemistry, 2024)

Test system: A-549
Assay: Antiproliferative assay (MTT)
Assay type: cell-based
Conditions: Homo sapiens, A549, A-549 (lung), read-out: Antiproliferative activity IC50 ± SEM, A-549
From the text: (§1) The MTT test was employed for this investigation ([Hisham et al., 2022]; [El-Sherief et al., 2019]; [Ramadan et al., 2020]). Table 2 presents the four cancer cell lines’ median inhibitory concentration (IC50) and GI50 (average IC50) values.
(§2) The MTT test was employed for this investigation ([Hisham et al., 2022]; [El-Sherief et al., 2019]; [Ramadan et al., 2020]). The IC50 values were derived from dose-response tests. The reported data are derived from at least two independent studies, each comprising three replicates per concentration. See Supplementary Material A1 for more details.
(§3) (in 0.1% DMSO) were added (in 200 μL medium to yield a final concentration of 0.1% v/v) to the wells of plates. A single compound was designated with four wells followed by incubation of plates for 96h at 37°C. After incubation, medium was removed completely from the plates followed by addition of MTT (0.4 mg/mL in medium) to each well and subsequent incubation of plates for 3h. MTT (along with the medium) was removed and DMSO (150μL) was added to each well of the culture plates, followed by vertexing and subsequent measurement of absorbance (at 540 nm) using microplate reader. The data are shown as percentage inhibition of proliferation in comparison with controls containing 0.1% DMSO.
(§4) 4.2.1.2. Assay for antiproliferative effect […]
(§5) (10%) and 1 µg/mL each of aprotinin, leupeptin and pepstatin for 120 min. The purification was performed either at 4 °C or on ice. To record autophosphorylation level, EGFR kinase assay was carried out on the basis of DELFIA/Time-Resolved Fluorometry. The compounds were first
(§6) (1 picture or pasted object on this page, not shown here)

| Compound | IC50 |
| --- | --- |
| COc1ccc(-c2cc(-c3cccc(OC)c3)nc(SC(C)C)n2)cc1 [Compound 19, 2-(Isopropylthio)-6-(3-methoxyphenyl)-4-(4-methoxyphenyl)pyrimidine] | 29 ± 2 nM |
| C=CCSc1nc(-c2ccc(OC)cc2)cc(-c2cccc(OC)c2)n1 [Compound 20, 2-(Allylthio)-6-(3-methoxyphenyl)-4-(4-methoxyphenyl)pyrimidine] | 70 ± 6 nM |

Test system: MCF-7
Assay: Antiproliferative assay (MTT)
Assay type: cell-based
Conditions: Homo sapiens, MCF7, MCF-7 (breast), read-out: Antiproliferative activity IC50 ± SEM, MCF-7
From the text: as §1, §2, §3, §4, §5, §6

| Compound | IC50 |
| --- | --- |
| COc1ccc(-c2cc(-c3cccc(OC)c3)nc(SC(C)C)n2)cc1 [Compound 19, 2-(Isopropylthio)-6-(3-methoxyphenyl)-4-(4-methoxyphenyl)pyrimidine] | 32 ± 3 nM |
| C=CCSc1nc(-c2ccc(OC)cc2)cc(-c2cccc(OC)c2)n1 [Compound 20, 2-(Allylthio)-6-(3-methoxyphenyl)-4-(4-methoxyphenyl)pyrimidine] | 73 ± 6 nM |

Test system: Panc-1
Assay: Antiproliferative assay (MTT)
Assay type: cell-based
Conditions: Homo sapiens, Panc-1 (pancreatic), read-out: Antiproliferative activity IC50 ± SEM, Panc-1
From the text: as §1, §2, §3, §4, §5, §6

| Compound | IC50 |
| --- | --- |
| COc1ccc(-c2cc(-c3cccc(OC)c3)nc(SC(C)C)n2)cc1 [Compound 19, 2-(Isopropylthio)-6-(3-methoxyphenyl)-4-(4-methoxyphenyl)pyrimidine] | 30 ± 2 nM |
| C=CCSc1nc(-c2ccc(OC)cc2)cc(-c2cccc(OC)c2)n1 [Compound 20, 2-(Allylthio)-6-(3-methoxyphenyl)-4-(4-methoxyphenyl)pyrimidine] | 70 ± 6 nM |

Test system: HT-29
Assay: Antiproliferative assay (MTT)
Assay type: cell-based
Conditions: Homo sapiens, HT-29 (colon), read-out: Antiproliferative activity IC50 ± SEM, HT-29
From the text: as §1, §2, §3, §4, §5, §6

| Compound | IC50 |
| --- | --- |
| COc1ccc(-c2cc(-c3cccc(OC)c3)nc(SC(C)C)n2)cc1 [Compound 19, 2-(Isopropylthio)-6-(3-methoxyphenyl)-4-(4-methoxyphenyl)pyrimidine] | 30 ± 2 nM |
| C=CCSc1nc(-c2ccc(OC)cc2)cc(-c2cccc(OC)c2)n1 [Compound 20, 2-(Allylthio)-6-(3-methoxyphenyl)-4-(4-methoxyphenyl)pyrimidine] | 72 ± 4 nM |

Test system: DU-145
Assay: NCI-60 single-dose screen
Assay type: cell-based
Conditions: Homo sapiens, single dose 10 µM, '-' = no inhibition, read-out: % Growth Inhibition
Method: (§7) The National Cancer Institute’s Developmental Therapeutic Program (www.dtp.nci.nih.gov) has tested compounds 9–29 (except compounds 21 and 22) against 60 cancer cell lines from nine types (leukemia, lung, colon, CNS, melanoma, ovarian, renal, prostate, and breast cancer) at a single dose (10 μM) ([El-Sherief et al., 2018]). […] The most sensitive cells included leukemia (SR, K-562, and MOLT-4), lung (NCI-H522, […], and EKVX), breast (MCF-7 and T-47D), colon (HCT-15 and HT-29), and ovarian (NCI/ADR-RES).
(§8) The National Cancer Institute’s Developmental Therapeutic Program (www.dtp.nci.nih.gov) evaluated compounds 9–29 (excluding 21 and 22) against 60 cancer cell lines from nine categories (leukemia, lung, colon, CNS, melanoma, ovarian, renal, prostate, and breast cancer) at a single dose (10 μM) ([El-Sherief et al., 2018]). See Supplementary Material A1 for more details.

| Compound | inhibition at 10 µM |
| --- | --- |
| COc1ccc(-c2cc(-c3cccc(OC)c3)nc(SC(C)C)n2)cc1 [Compound 19, 2-(Isopropylthio)-6-(3-methoxyphenyl)-4-(4-methoxyphenyl)pyrimidine] | 4.58% |
| C=CCSc1nc(-c2ccc(OC)cc2)cc(-c2cccc(OC)c2)n1 [Compound 20, 2-(Allylthio)-6-(3-methoxyphenyl)-4-(4-methoxyphenyl)pyrimidine] | < 0% |

Test system: OVCAR-3
Assay: NCI-60 single-dose screen
Assay type: cell-based
Conditions: Homo sapiens, single dose 10 µM, '-' = no inhibition, read-out: % Growth Inhibition
Method: as §7, §8

| Compound | inhibition at 10 µM |
| --- | --- |
| COc1ccc(-c2cc(-c3cccc(OC)c3)nc(SC(C)C)n2)cc1 [Compound 19, 2-(Isopropylthio)-6-(3-methoxyphenyl)-4-(4-methoxyphenyl)pyrimidine] | < 0% |
| C=CCSc1nc(-c2ccc(OC)cc2)cc(-c2cccc(OC)c2)n1 [Compound 20, 2-(Allylthio)-6-(3-methoxyphenyl)-4-(4-methoxyphenyl)pyrimidine] | < 0% |

Test system: SF-295
Assay: NCI-60 single-dose screen
Assay type: cell-based
Conditions: Homo sapiens, single dose 10 µM, '-' = no inhibition, read-out: % Growth Inhibition
Method: as §7, §8

| Compound | inhibition at 10 µM |
| --- | --- |
| COc1ccc(-c2cc(-c3cccc(OC)c3)nc(SC(C)C)n2)cc1 [Compound 19, 2-(Isopropylthio)-6-(3-methoxyphenyl)-4-(4-methoxyphenyl)pyrimidine] | 4.16% |
| C=CCSc1nc(-c2ccc(OC)cc2)cc(-c2cccc(OC)c2)n1 [Compound 20, 2-(Allylthio)-6-(3-methoxyphenyl)-4-(4-methoxyphenyl)pyrimidine] | 3.19% |

Test system: HCT-116
Assay: NCI-60 single-dose screen
Assay type: cell-based
Conditions: Homo sapiens, single dose 10 µM, '-' = no inhibition, read-out: % Growth Inhibition
Method: as §7, §8

| Compound | inhibition at 10 µM |
| --- | --- |
| COc1ccc(-c2cc(-c3cccc(OC)c3)nc(SC(C)C)n2)cc1 [Compound 19, 2-(Isopropylthio)-6-(3-methoxyphenyl)-4-(4-methoxyphenyl)pyrimidine] | 23.8% |
| C=CCSc1nc(-c2ccc(OC)cc2)cc(-c2cccc(OC)c2)n1 [Compound 20, 2-(Allylthio)-6-(3-methoxyphenyl)-4-(4-methoxyphenyl)pyrimidine] | 5.47% |

Test system: HS 578T
Assay: NCI-60 single-dose screen
Assay type: cell-based
Conditions: Homo sapiens, single dose 10 µM, '-' = no inhibition, read-out: % Growth Inhibition
Method: as §7, §8

| Compound | inhibition at 10 µM |
| --- | --- |
| COc1ccc(-c2cc(-c3cccc(OC)c3)nc(SC(C)C)n2)cc1 [Compound 19, 2-(Isopropylthio)-6-(3-methoxyphenyl)-4-(4-methoxyphenyl)pyrimidine] | 4.95% |
| C=CCSc1nc(-c2ccc(OC)cc2)cc(-c2cccc(OC)c2)n1 [Compound 20, 2-(Allylthio)-6-(3-methoxyphenyl)-4-(4-methoxyphenyl)pyrimidine] | < 0% |

Test system: MDA-MB-435
Assay: NCI-60 single-dose screen
Assay type: cell-based
Conditions: Homo sapiens, single dose 10 µM, '-' = no inhibition, read-out: % Growth Inhibition
Method: as §7, §8

| Compound | inhibition at 10 µM |
| --- | --- |
| COc1ccc(-c2cc(-c3cccc(OC)c3)nc(SC(C)C)n2)cc1 [Compound 19, 2-(Isopropylthio)-6-(3-methoxyphenyl)-4-(4-methoxyphenyl)pyrimidine] | 3.92% |
| C=CCSc1nc(-c2ccc(OC)cc2)cc(-c2cccc(OC)c2)n1 [Compound 20, 2-(Allylthio)-6-(3-methoxyphenyl)-4-(4-methoxyphenyl)pyrimidine] | 1.82% |

Test system: CAKI-1
Assay: NCI-60 single-dose screen
Assay type: cell-based
Conditions: Homo sapiens, single dose 10 µM, '-' = no inhibition, read-out: % Growth Inhibition
Method: as §7, §8

| Compound | inhibition at 10 µM |
| --- | --- |
| COc1ccc(-c2cc(-c3cccc(OC)c3)nc(SC(C)C)n2)cc1 [Compound 19, 2-(Isopropylthio)-6-(3-methoxyphenyl)-4-(4-methoxyphenyl)pyrimidine] | 24.1% |
| C=CCSc1nc(-c2ccc(OC)cc2)cc(-c2cccc(OC)c2)n1 [Compound 20, 2-(Allylthio)-6-(3-methoxyphenyl)-4-(4-methoxyphenyl)pyrimidine] | 7.19% |

Test system: HOP-92
Assay: NCI-60 single-dose screen
Assay type: cell-based
Conditions: Homo sapiens, single dose 10 µM, '-' = no inhibition, read-out: % Growth Inhibition
Method: as §7, §8

| Compound | inhibition at 10 µM |
| --- | --- |
| COc1ccc(-c2cc(-c3cccc(OC)c3)nc(SC(C)C)n2)cc1 [Compound 19, 2-(Isopropylthio)-6-(3-methoxyphenyl)-4-(4-methoxyphenyl)pyrimidine] | < 0% |
| C=CCSc1nc(-c2ccc(OC)cc2)cc(-c2cccc(OC)c2)n1 [Compound 20, 2-(Allylthio)-6-(3-methoxyphenyl)-4-(4-methoxyphenyl)pyrimidine] | < 0% |

Test system: SW-620
Assay: NCI-60 single-dose screen
Assay type: cell-based
Conditions: Homo sapiens, single dose 10 µM, '-' = no inhibition, read-out: % Growth Inhibition
Method: as §7, §8

| Compound | inhibition at 10 µM |
| --- | --- |
| COc1ccc(-c2cc(-c3cccc(OC)c3)nc(SC(C)C)n2)cc1 [Compound 19, 2-(Isopropylthio)-6-(3-methoxyphenyl)-4-(4-methoxyphenyl)pyrimidine] | < 0% |
| C=CCSc1nc(-c2ccc(OC)cc2)cc(-c2cccc(OC)c2)n1 [Compound 20, 2-(Allylthio)-6-(3-methoxyphenyl)-4-(4-methoxyphenyl)pyrimidine] | < 0% |

Test system: SN12C
Assay: NCI-60 single-dose screen
Assay type: cell-based
Conditions: Homo sapiens, single dose 10 µM, '-' = no inhibition, read-out: % Growth Inhibition
Method: as §7, §8

| Compound | inhibition at 10 µM |
| --- | --- |
| COc1ccc(-c2cc(-c3cccc(OC)c3)nc(SC(C)C)n2)cc1 [Compound 19, 2-(Isopropylthio)-6-(3-methoxyphenyl)-4-(4-methoxyphenyl)pyrimidine] | 18.5% |
| C=CCSc1nc(-c2ccc(OC)cc2)cc(-c2cccc(OC)c2)n1 [Compound 20, 2-(Allylthio)-6-(3-methoxyphenyl)-4-(4-methoxyphenyl)pyrimidine] | 6.16% |

Test system: not listed separately
Assay: Cell viability assay (MTT) on normal cells
Assay type: cell-based
Conditions: human, MCF-10A normal mammary gland epithelial cells, 4 days incubation
Method: This experiment examines the impact of the newly developed compounds 9–29 on normal cell lines to assess their safety level. The vitality of the investigated compounds was assessed using the MCF-10 A cell line, a normal human mammary gland epithelial cell line. Following 4 days of incubation on MCF-10 A cells with each examined compound at a concentration of 50 μM, the vitality of the cells was assessed using the MTT test ([Mahmoud et al., 2022]; [Mekheimer et al., 2022]).
This experiment examines the impact of the newly developed compounds 9–29 on normal cell lines to assess their safety level. The viability of 9–29 was assessed using the MCF-10 A cell line, a normal human mammary gland epithelial cell line. Following 4 days of incubation on MCF-10 A cells with each examined compound at a concentration of 50 μM, the vitality of the cells was assessed using the MTT test ([Mahmoud et al., 2022]; [Mekheimer et al., 2022]). Refer to Supplementary Material A1 for more details. […]
4.2. Biological evaluation
4.2.1. Cytotoxic activity using MTT Assay and evaluation of IC50
MTT assay was carried out to study the effect of compounds on mammary epithelial cells (MCF-10A). The medium in which cells were propagated contained Dulbecco's modified Eagle's medium (DMEM)/ Ham's F-12 medium (1:1) supplemented with epidermal growth factor (20 ng/mL), hydrocortisone (500 ng/mL), insulin (10 μg/mL), 2 mM glutamine and 10% foetal calf serum.
as §3, with “After every 2-3 days, the cells were passaged using trypsin ethylenediamine tetra acetic acid (EDTA). The cells were seeded at a density of 10^4 cells mL-1 in flat-bottomed culture plates containing 96 wells each. After 24 h, medium was removed from the plates and the compounds in (in 0.1%” for “(in 0.1%”, “0.1% DMSO. […]” for “0.1% DMSO.”

| Compound | viability at 4 days, 50 µM |
| --- | --- |
| COc1ccc(-c2cc(-c3cccc(OC)c3)nc(SC(C)C)n2)cc1 [Compound 19, 2-(Isopropylthio)-6-(3-methoxyphenyl)-4-(4-methoxyphenyl)pyrimidine] | 90% |
| C=CCSc1nc(-c2ccc(OC)cc2)cc(-c2cccc(OC)c2)n1 [Compound 20, 2-(Allylthio)-6-(3-methoxyphenyl)-4-(4-methoxyphenyl)pyrimidine] | 90% |

Test system: not given
Assay: not given
Conditions: not given

| Compound | melting point |
| --- | --- |
| COc1ccc(-c2cc(-c3cccc(OC)c3)nc(SC(C)C)n2)cc1 [Compound 19, 2-(Isopropylthio)-6-(3-methoxyphenyl)-4-(4-methoxyphenyl)pyrimidine] | 235 to 237 °C |
| C=CCSc1nc(-c2ccc(OC)cc2)cc(-c2cccc(OC)c2)n1 [Compound 20, 2-(Allylthio)-6-(3-methoxyphenyl)-4-(4-methoxyphenyl)pyrimidine] | 258 to 260 °C |
